The text below walks through data of patent publication US20220105058A1, “USE OF 3-O-SULFAMATE-16,16-DIMETHYL-D-HOMOEQUILENIN TO TREAT ONCOLOGICAL DISEASES” (priority 2018, published 2022).

One series has as its system estrogen receptors. Kind of series: study of binding to the estrogen receptors. As to conditions: concentrations of −0.001 and 0.01, 0.1 and 1.0 μmol/ml.
Series [1] relates to Normal human dermal fibroblasts (HDF). As to the kind of experiment: growth of normal human skin fibroblasts (negative control). The class given is cell-based. As to conditions: concentration of 20 μg/ml. How it is done: The study analysis was carried out on an passaged MCF-7 human cells culture culture (breast adenocarcinoma). Normal human dermal fibroblasts (HDF) of early passages were used as a negative control. The cells were cultivated in Carrel vials in DMEM/F12 medium (Biolot) with 1.0% of antibiotic-free fetal bovine embryonic serum (Biolot) added in the 5% CO2 atmosphere, at 37° C.
The cells were seeded on Carrel vials at 50×10^4 cells per flask. To study the proliferative activity of the cells under conditions of sulfatase inhibition, 24 hours after seeding the culture medium was […], and then these tumor cell lines were incubated for various periods of time (24 to 72 hrs). The inhibitor was dissolved in DMSO. […] To exclude the cytotoxic effect of DMSO, a control sample comprising DMSO without sulfatase inhibitor was prepared. To exclude nonspecific detrimental effects of the compounds, normal human skin fibroblasts were used. Then the cells were detached with the versene-trypsin solution (Biolot), plated onto Carrel vials containing a fresh complete culture medium. The cells were counted when untreated control cells reached the maximum cell density per unit of surface area of a culture flask (monolayer), and their number was set as 100%. The proliferative activity of all of the studied cell cultures exposed to sulfatase inhibitors was determined in triplicate.

Series [2] relates to gastric adenocarcinoma SNU638. As to the kind of experiment: activity against SNU638. The class given is cell-based. To be noted: Homo sapiens, SNU-638.
Series [3] relates to chronic myelogenous leukemia cells (K562). Kind of series: activity against K562. The class given is cell-based.
The subject of the next series is endometrium. As to the kind of experiment: effects on the endometrium (summary statement).

The structures appear in SMILES notation.

The IC50 is the midpoint of a concentration-inhibition curve. Read a low IC50 as greater potency. With `CC1(C)CC(=O)[C@@]2(C)CCc3c(ccc4cc(OS(N)(=O)=O)ccc34)[C@@H]2C1` [medicament, 3-O-sulfamate-16,16-dimethyl-D-homoequilenin], the hormone activity result in the series on estrogen receptors was “lacks hormone activity”. Besides, the “growth of human skin fibroblasts” value in series [1] is given as “does not influence the growth”. Further, the IC50 in series [2] stood at 22.8 µM. Moreover, the “activity against K562 cells” value in series [3] is reported as “active”. Besides, the “negative effects on the endometrium” value with endometrium is reported as “absence of negative effects”.
